# Source: the supplement of paper PMC10307832
# Assays:
# Assay in all cases: relative viability (nuclei count vs DMSO), 5 days (fraction); higher = more cells survive
# H3255 = test system: H3255
# In short: (§1)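 Relative viability divides the nuclei count in treated wells by that in vehicle wells. Lung cancer cell lines were seeded in 1536-well plates, dosed by pin tool the next day, and fixed and stained after 5 days in one step with final 0.05% Triton X-100, 1% formaldehyde and 1 ug/ml Hoechst. Dosing was a single drug or a fixed anchor-drug dose plus five library-drug doses (not always all listed) in √10 steps, and values are medians of duplicate plates imaged at 4×.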
# NCI-H2087 = test system: NCI-H2087
# In short: as §1
# NCI-H1395 = test system: NCI-H1395
# In short: as §1
# LC-2-ad = test system: LC-2-ad
# In short: as §1
# NCI-H1944 = test system: NCI-H1944
# In short: as §1
# COR-L 105 = test system: COR-L 105
# In short: as §1
# NCI-H661 = test system: NCI-H661
# In short: as §1
# NCI-H1651 = test system: NCI-H1651
# In short: as §1
# PC-3 [JPC-3] = test system: PC-3 [JPC-3]
# In short: as §1
# NCI-H1915 = test system: NCI-H1915
# In short: as §1
# NCI-H1437 = test system: NCI-H1437
# In short: as §1
# NCI-H2347 = test system: NCI-H2347
# In short: as §1
# EMC-BAC-2 = test system: EMC-BAC-2
# In short: as §1
# EKVX = test system: EKVX
# In short: as §1
# NCI-H2085 = test system: NCI-H2085
# In short: as §1
# LK-2 = test system: LK-2
# In short: as §1
# LXF-289 = test system: LXF-289
# In short: as §1
# CAL-12T = test system: CAL-12T
# In short: as §1
# NCI-H1755 = test system: NCI-H1755
# In short: as §1
# SK-LU-1 = test system: SK-LU-1
# In short: as §1
# SK-MES-1 = test system: SK-MES-1
# In short: as §1
# NCI-H1793 = test system: NCI-H1793
# In short: as §1
# NCI-H2228 = test system: NCI-H2228
# In short: as §1
smiles,measurement,setting,value
Cc1cnc(-c2cnc(NCCNc3ccc(C#N)cn3)nc2-c2ccc(Cl)cc2Cl)[nH]1 + CC(=O)c1c(C)c2cnc(Nc3ccc(N4CCNCC4)cn3)nc2n(C2CCCC2)c1=O [Palbociclib] (partner 0.5 µM),relative viability,H3255; first compound 0.08 µM,0.299
same,relative viability,H3255; first compound 0.253 µM,0.34
same,relative viability,H3255; first compound 0.8 µM,0.317
same,relative viability,H3255; first compound 2.53 µM,0.306
same,relative viability,NCI-H2087; first compound 0.08 µM,0.235
same,relative viability,NCI-H2087; first compound 0.8 µM,0.227
same,relative viability,NCI-H2087; first compound 2.53 µM,0.146
same,relative viability,NCI-H1395; first compound 0.08 µM,0.762
same,relative viability,NCI-H1395; first compound 0.253 µM,0.619
same,relative viability,NCI-H1395; first compound 0.8 µM,0.609
same,relative viability,NCI-H1395; first compound 2.53 µM,0.65
same,relative viability,LC-2-ad; first compound 0.08 µM,0.473
same,relative viability,LC-2-ad; first compound 0.8 µM,0.485
same,relative viability,LC-2-ad; first compound 2.53 µM,0.436
same,relative viability,NCI-H1944; first compound 0.08 µM,0.341
same,relative viability,NCI-H1944; first compound 0.8 µM,0.366
same,relative viability,NCI-H1944; first compound 2.53 µM,0.322
same,relative viability,COR-L 105; first compound 0.08 µM,0.397
same,relative viability,COR-L 105; first compound 0.253 µM,0.401
same,relative viability,COR-L 105; first compound 0.8 µM,0.382
same,relative viability,COR-L 105; first compound 2.53 µM,0.404
same,relative viability,NCI-H661; first compound 0.08 µM,0.44
same,relative viability,NCI-H661; first compound 0.253 µM,0.433
same,relative viability,NCI-H661; first compound 0.8 µM,0.432
same,relative viability,NCI-H661; first compound 2.53 µM,0.506
same,relative viability,NCI-H1651; first compound 0.08 µM,0.58
same,relative viability,NCI-H1651; first compound 0.253 µM,0.468
same,relative viability,NCI-H1651; first compound 0.8 µM,0.504
same,relative viability,NCI-H1651; first compound 2.53 µM,0.549
same,relative viability,PC-3 [JPC-3]; first compound 0.08 µM,0.533
same,relative viability,PC-3 [JPC-3]; first compound 0.253 µM,0.488
same,relative viability,PC-3 [JPC-3]; first compound 0.8 µM,0.543
same,relative viability,PC-3 [JPC-3]; first compound 2.53 µM,0.503
same,relative viability,NCI-H1915; first compound 0.08 µM,0.547
same,relative viability,NCI-H1915; first compound 0.8 µM,0.571
same,relative viability,NCI-H1915; first compound 2.53 µM,0.601
same,relative viability,NCI-H1437; first compound 0.08 µM,0.355
same,relative viability,NCI-H1437; first compound 0.253 µM,0.303
same,relative viability,NCI-H1437; first compound 0.8 µM,0.281
same,relative viability,NCI-H1437; first compound 2.53 µM,0.285
same,relative viability,NCI-H2347; first compound 0.08 µM,0.411
same,relative viability,NCI-H2347; first compound 0.253 µM,0.406
same,relative viability,NCI-H2347; first compound 0.8 µM,0.438
same,relative viability,NCI-H2347; first compound 2.53 µM,0.493
same,relative viability,EMC-BAC-2; first compound 0.08 µM,0.544
same,relative viability,EMC-BAC-2; first compound 0.253 µM,0.523
same,relative viability,EMC-BAC-2; first compound 0.8 µM,0.543
same,relative viability,EMC-BAC-2; first compound 2.53 µM,0.512
same,relative viability,EKVX; first compound 0.08 µM,0.493
same,relative viability,EKVX; first compound 0.253 µM,0.316
same,relative viability,EKVX; first compound 0.8 µM,0.417
same,relative viability,EKVX; first compound 2.53 µM,0.444
same,relative viability,NCI-H2085; first compound 0.08 µM,0.469
same,relative viability,NCI-H2085; first compound 0.253 µM,0.509
same,relative viability,NCI-H2085; first compound 0.8 µM,0.504
same,relative viability,NCI-H2085; first compound 2.53 µM,0.561
same,relative viability,LK-2; first compound 0.08 µM,0.754
same,relative viability,LK-2; first compound 0.253 µM,0.645
same,relative viability,LK-2; first compound 2.53 µM,0.583
same,relative viability,LXF-289; first compound 0.08 µM,0.66
same,relative viability,LXF-289; first compound 0.253 µM,0.565
same,relative viability,LXF-289; first compound 0.8 µM,0.571
same,relative viability,LXF-289; first compound 2.53 µM,0.682
same,relative viability,CAL-12T; first compound 0.08 µM,0.43
same,relative viability,CAL-12T; first compound 0.253 µM,0.413
same,relative viability,CAL-12T; first compound 0.8 µM,0.37
same,relative viability,CAL-12T; first compound 2.53 µM,0.286
same,relative viability,NCI-H1755; first compound 0.08 µM,0.418
same,relative viability,NCI-H1755; first compound 0.253 µM,0.443
same,relative viability,NCI-H1755; first compound 0.8 µM,0.446
same,relative viability,NCI-H1755; first compound 2.53 µM,0.438
same,relative viability,SK-LU-1; first compound 0.08 µM,0.417
same,relative viability,SK-LU-1; first compound 0.253 µM,0.474
same,relative viability,SK-LU-1; first compound 0.8 µM,0.337
same,relative viability,SK-LU-1; first compound 2.53 µM,0.524
same,relative viability,SK-MES-1; first compound 0.08 µM,0.363
same,relative viability,SK-MES-1; first compound 0.253 µM,0.332
same,relative viability,SK-MES-1; first compound 0.8 µM,0.379
same,relative viability,SK-MES-1; first compound 2.53 µM,0.394
same,relative viability,NCI-H1793; first compound 0.08 µM,0.336
same,relative viability,NCI-H1793; first compound 0.253 µM,0.288
same,relative viability,NCI-H1793; first compound 0.8 µM,0.282
same,relative viability,NCI-H1793; first compound 2.53 µM,0.386
same,relative viability,NCI-H2228; first compound 0.08 µM,0.83
same,relative viability,NCI-H2228; first compound 0.253 µM,0.716
same,relative viability,NCI-H2228; first compound 0.8 µM,0.734
same,relative viability,NCI-H2228; first compound 2.53 µM,0.648
